The target in one assay is T1, X/β5 (Homo sapiens, UniProt P20618+P28074).
T1 construct: purchased R&D Systems
Kind of assay: Proteasome activity assay, purified 20S proteasome, Ac-WLA-AMC. The class given is biochemical. As to the method: Purified 20S human proteasomes (CP and IP, R&D Systems) were used to assess the in vitro inhibition of proteasome catalytic activity by LMP2 inhibitors. In our 96-well format assays involving a 100 μL total volume, 20S proteasomes (0.5 μg/mL) were incubated with inhibitors or reference compounds (e.g., carfilzomib) in assay buffer (20 mM Tris-HCl, 0.5 mM EDTA, 0.035% SDS) at room temperature for 30 min. Reactions were initiated by the addition of fluorogenic substrates containing the AMC (7-amino-4-methylcoumarin) group. Specifically, the following substrates were used: Suc-LLVY-AMC (CT-L activity, 100 μM), Ac-PAL-AMC (LMP2, 100 μM), Ac-WLA-AMC (β5, 20 μM), Ac-nLPnLD-AMC (β1,100 μM), Ac-RLR-AMC (β2/2i, 20 μM), and Ac-ANW-AMC (β5i, 100 μM). The fluorescence of liberated AMC was measured over a period of 90 min at 360 and 460 nm on a SpectraMax M5 fluorescence plate reader (Molecular Devices). For the proteasome activity of brain tissues isolated from AD mice, tissues were homogenized in RIPA buffer (50 mM Tris Cl, pH 7.4, 150 mM NaCl, 5 mM EDTA, 1% Nonidet P-40, 1% sodium deoxycholate, 0.1% SDS, 1% aprotinin, 50 mM NaF) and sonicated. Samples were centrifuged for 40 min at 14,000×g (4° C.). Protein concentration was determined using the Bradford Assay according to the manufacturer's protocol. […] Fluorescence was recorded for 90 min using a Synergy-HT (Bio Tek) plate reader.

In another assay the target is T2, LMP7/β5i (Homo sapiens, UniProt P20618+P28062).
T2 construct: purchased R&D Systems
Kind of assay: Proteasome activity assay, purified 20S proteasome, Ac-ANW-AMC. The class given is biochemical. As to the method:
Purified 20S human proteasomes (CP and IP, R&D Systems) were used to assess the in vitro inhibition of proteasome catalytic activity by LMP2 inhibitors. […] Reactions were initiated by the addition of fluorogenic substrates containing the AMC (7-amino-4-methylcoumarin) group. Specifically, the following substrates were used: Suc-LLVY-AMC (CT-L activity, 100 μM), Ac-PAL-AMC (LMP2, 100 μM), Ac-WLA-AMC (β5, 20 μM), Ac-nLPnLD-AMC (β1,100 μM), Ac-RLR-AMC (β2/2i, 20 μM), and Ac-ANW-AMC (β5i, 100 μM). The fluorescence of liberated AMC was measured over a period of 90 min at 360 and 460 nm on a SpectraMax M5 fluorescence plate reader (Molecular Devices). For the proteasome activity of brain tissues isolated from AD mice, tissues were homogenized in RIPA buffer (50 mM Tris Cl, pH 7.4, 150 mM NaCl, 5 mM EDTA, 1% Nonidet P-40, 1% sodium deoxycholate, 0.1% SDS, 1% aprotinin, 50 mM NaF) and sonicated. Samples were centrifuged for 40 min at 14,000×g (4° C.). Protein concentration was determined using the Bradford Assay according to the manufacturer's protocol. Finally, samples were loaded onto a 96-well plate followed by the addition of the substrate (Ac-PAL-AMC) at 37° C. Fluorescence was recorded for 90 min using a Synergy-HT (Bio Tek) plate reader.

In assay [1] the test system is reactive astrocytes and microglia. Kind of assay: Immunohistochemical analysis of hippocampal tissues (GFAP, Iba1). Type of assay: in vivo, mouse. From the text:
Activation of neuroglia is closely linked to neuroinflammation, which is reported to be one of major factors involved in the development and progression of AD. Therefore, we set out to investigate whether LMP2 inhibitors could block the activation of astrocytes and microglia. We performed immunohistochemical analysis of hippocampal tissues isolated from the brains of both APPsw and LPS-induced mice, using GFAP and Iba1 as standard markers for reactive astrocytes and microglial, respectively.
Frozen tissues were cut into 30 μm thick sections and stored free floating in cryoprotectant solution (30% ethylenglycol, 20% glycerol, 50 mM sodium phosphate buffer, pH 7.4) at 4° C. until further use. For immunohistological staining, sections were rinsed in 1×PBS, incubated in blocking buffer (1×PBS containing 0.3% Triton X-100 and 10% normal goat serum) for 1 hr at room temperature and primary antibodies for GFAP (1:1000; Abcam) and Iba-1 (1:500; Abcam) were diluted in 1×PBS/0.3% triton X-100/5% normal goat serum and incubated over night at 4° C. […] Fluorescence imaging was performed using an Olympus XM10 monochrome fluorescence CCD camera (Olympus, Germany).

On to `CC(=O)NCC(=O)N1CCC[C@H]1C(=O)N[C@@H](Cc1ccccc1)C(=O)N[C@@H](CC(C)C)C(=O)[C@@]1(C)CO1` [YU102], for which the IC50 at X/β5 and on LMP7/β5i was over 10 µM throughout. In addition, in assay [1] (GFAP, FIG. 11A), the activation of astrocytes entry is “inhibits activation of astrocytes”. Moreover, the activation of microglia result in assay [1] (Iba1, FIG. 11B) was “inhibits activation of microglia”.

These data come from patent US20190161516A1, “PROTEASOME INHIBITORS” (University of Kentucky Research Foundation, priority 2017, published 2019).
